Measurements published in patent US8669271B2 (Boehringer Ingelheim International GmbH, priority 2010, dated 2014).

molecular target: T1, human GPR119 (Homo sapiens, UniProt Q8TDV5); assay: AlphaScreen cAMP assay in Min-6/hGPR119 cells (activation of GPR119, intracellular cAMP); assay type: cell-based; details: MIN6 cells stably transfected with human GPR119; cAMP by AlphaScreen after 45 minutes incubation at room temperature
T1 construct: expression vector for human GPR119 cDNA (Acc. No. NP_848566); expressed in transfected cells
T1 sequence (Q8TDV5 1-335): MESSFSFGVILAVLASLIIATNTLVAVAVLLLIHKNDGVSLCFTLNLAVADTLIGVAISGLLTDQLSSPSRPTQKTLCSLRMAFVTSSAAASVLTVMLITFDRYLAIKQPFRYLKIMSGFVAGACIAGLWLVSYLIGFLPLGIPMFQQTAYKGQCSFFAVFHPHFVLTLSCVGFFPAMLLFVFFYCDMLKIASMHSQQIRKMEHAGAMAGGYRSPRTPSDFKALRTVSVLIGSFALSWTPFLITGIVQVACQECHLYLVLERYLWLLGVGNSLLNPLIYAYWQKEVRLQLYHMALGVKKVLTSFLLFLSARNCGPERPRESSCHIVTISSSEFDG
In short: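 MIN6 cells stably expressing human GPR119, seeded 24 h before treatment; compounds applied 45 min at ~20 °C in Hepes-buffered saline pH 7.4 with 0.5 mM IBMX, 0.1% BSA, 1% DMSO final. Intracellular cAMP measured by AlphaScreen.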

| EC50 [nM] | Compound |
| --- | --- |
| 30 | COCCN(C)C(=O)c1ccc(-c2ccc3c(c2)CC(C2CCN(C(=O)OC(C)C)CC2)O3)cc1 (stereo not drawn) [Example 123, 4-(5-{4-[(2-Methoxy-ethyl)-methyl-carbamoyl]-phenyl}-2,3-dihydro-benzofuran-2-yl)-piperidine-1-carboxylic acid isopropyl ester] |
| 70 | COCCN(C)C(=O)Cc1ccc(-c2ccc3c(c2)CC(C2CCN(C(=O)OC(C)C)CC2)O3)cc1 (stereo not drawn) [Example 124] |
| 168 | CC(O)CCNC(=O)Cc1ccc(-c2ccc3c(c2)CC(C2CCN(C(=O)OC(C)C)CC2)O3)cc1 (stereo not drawn) [Example 126] |
| 25 | COC1CCN(C(=O)c2ccc(-c3ccc4c(c3)CC(C3CCN(C(=O)OC(C)C)CC3)O4)cc2)CC1 (stereo not drawn) [Example 127] |
| 159 | CC(O)CNC(=O)Cc1ccc(-c2ccc3c(c2)CC(C2CCN(C(=O)OC(C)C)CC2)O3)cc1 (stereo not drawn) [Example 130] |
| 95 | CC(C)OC(=O)N1CCC(C2Cc3cc(-c4ccc(C(=O)N5CCC(O)C5)cc4)ccc3O2)CC1 (stereo not drawn) [Example 131] |
| 154 | CC(C)OC(=O)N1CCC(C2Cc3cc(-c4ccc(CC(=O)N5CCC(O)C5)cc4)ccc3O2)CC1 (stereo not drawn) [Example 132] |
| 38 | CC(C)OC(=O)N1CCC(C2Cc3cc(-c4ccc(C(=O)N5CC(F)(F)C5)cc4)ccc3O2)CC1 (stereo not drawn) [Example 135] |
| 51 | CC(C)OC(=O)N1CCC(C2Cc3cc(-c4ccc(C(=O)NCC5COCCO5)cc4)ccc3O2)CC1 (stereo not drawn) [Example 137] |
| 277 | CC(C)OC(=O)N1CCC(C2Cc3cc(-c4ccc(CC(=O)NCC5COCCO5)cc4)ccc3O2)CC1 (stereo not drawn) [Example 138] |
| 52 | CC(C)OC(=O)N1CCC(C2Cc3cc(-c4ccc(C(=O)N(C)C5CCCOC5)cc4)ccc3O2)CC1 (stereo not drawn) [Example 139] |
| 94 | CC(C)OC(=O)N1CCC(C2Cc3cc(-c4ccc(C(=O)N5CCC(C)(O)C5)cc4)ccc3O2)CC1 (stereo not drawn) [Example 143] |
| 110 | CC(C)OC(=O)N1CCC(C2Cc3cc(-c4ccc(CC(=O)N5CCC(C)(O)C5)cc4)ccc3O2)CC1 (stereo not drawn) [Example 144] |
| 38 | COC1CN(C(=O)c2ccc(-c3ccc4c(c3)CC(C3CCN(C(=O)OC(C)C)CC3)O4)cc2)C1 (stereo not drawn) [Example 145] |
| 9 | CC(C)OC(=O)N1CCC(C2Cc3cc(-c4ccc(C(=O)N5CCOCC5)cc4)ccc3O2)CC1 (stereo not drawn) [Example 149] |
| 62 | CC(C)OC(=O)N1CCC(C2Cc3cc(-c4ccc(CC(=O)N5CCOCC5)cc4)ccc3O2)CC1 (stereo not drawn) [Example 150] |
| 82 | CC(C)OC(=O)N1CCC(C2Cc3cc(-c4ccc(C(=O)N(C)CCO)cc4)ccc3O2)CC1 (stereo not drawn) [Example 155] |

| EC50 [nM] | Compound |
| --- | --- |
| 132 | CC(C)OC(=O)N1CCC(C2Cc3cc(-c4ccc(CC(=O)N(C)CCO)cc4)ccc3O2)CC1 (stereo not drawn) [Example 156] |
| 235 | CC(C)OC(=O)N1CCC(C2Cc3cc(-c4ccc(CC(=O)NCc5ccccn5)cc4)ccc3O2)CC1 (stereo not drawn) [Example 158] |
| 25 | CC(C)OC(=O)N1CCC(C2Cc3cc(-c4ccc(C(=O)N(C)CC#N)cc4)ccc3O2)CC1 (stereo not drawn) [Example 159] |
| 31 | CC(C)OC(=O)N1CCC(C2Cc3cc(-c4ccc(CC(=O)N(C)CC#N)cc4)ccc3O2)CC1 (stereo not drawn) [Example 160] |
| 483 | CC(=O)Nc1ccc(-c2ccc3c(c2)CC(C2CCN(C(=O)OC(C)C)CC2)O3)nn1 (stereo not drawn) [Example 162, 4-[5-(6-Acetylamino-pyridazin-3-yl)-2,3-dihydro-benzofuran-2-yl]-piperidine-1-carboxylic acid isopropyl ester] |
| 296 | CC(=O)Nc1ccc(-c2ccc3c(c2)CC(C2CCN(C(=O)OC(C)C)CC2)O3)c(C)n1 (stereo not drawn) [Example 163] |
| 1840 | Cc1c(-c2ccc3c(c2)CC(C2CCN(C(=O)OC(C)C)CC2)O3)cnn1C (stereo not drawn) [Example 165] |
| 845 | COc1cnnc(-c2ccc3c(c2)CC(C2CCN(C(=O)OC(C)C)CC2)O3)c1 (stereo not drawn) [Example 167] |
| 1910 | CC(C)OC(=O)N1CCC(C2Cc3cc(-c4cnn(C)c4)ccc3O2)CC1 (stereo not drawn) [Example 168] |
| 3140 | CC(=O)Nc1cc(-c2ccc3c(c2)CC(C2CCN(C(=O)OC(C)C)CC2)O3)ccc1C (stereo not drawn) [Example 169] |
| 62 | CC(C)OC(=O)N1CCC(C2Cc3cc(-c4ccc(C#N)s4)ccc3O2)CC1 (stereo not drawn) [Example 170] |
| 582 | Cc1nn(C)cc1-c1ccc2c(c1)CC(C1CCN(C(=O)OC(C)C)CC1)O2 (stereo not drawn) [Example 171] |
| 288 | CC(C)OC(=O)N1CCC(C2Cc3cc(-c4ccc(CN(C)S(C)(=O)=O)cc4)ccc3O2)CC1 (stereo not drawn) [Example 172] |
| 373 | CC(C)OC(=O)N1CCC(C2Cc3cc(-c4cnc(NC(=O)C(C)(C)C)s4)ccc3O2)CC1 (stereo not drawn) [Example 173] |
| 201 | CC(=O)Nc1ncc(-c2ccc3c(c2)CC(C2CCN(C(=O)OC(C)C)CC2)O3)s1 (stereo not drawn) [Example 177] |
| 1200 | CC(=O)Nc1nc(C)c(-c2ccc3c(c2)CC(C2CCN(C(=O)OC(C)C)CC2)O3)s1 (stereo not drawn) [Example 178] |
| 118 | COc1cc(-c2ccc3c(c2)CC(C2CCN(C(=O)OC(C)C)CC2)O3)ccc1NC(C)=O (stereo not drawn) [Example 179] |

Second part, the molecule before the results:

| Compound | EC50 [nM] |
| --- | --- |
| CC(O)CCNC(=O)c1ccc(-c2ccc3c(c2)CC(C2CCN(C(=O)OC(C)C)CC2)O3)cc1 (stereo not drawn) [Example 125] | 110 |
| COC1CCN(C(=O)Cc2ccc(-c3ccc4c(c3)CC(C3CCN(C(=O)OC(C)C)CC3)O4)cc2)CC1 (stereo not drawn) [Example 128] | 57 |
| CC(O)CNC(=O)c1ccc(-c2ccc3c(c2)CC(C2CCN(C(=O)OC(C)C)CC2)O3)cc1 (stereo not drawn) [Example 129] | 73 |
| CC(C)OC(=O)N1CCC(C2Cc3cc(-c4ccc(C(=O)NCC#N)cc4)ccc3O2)CC1 (stereo not drawn) [Example 133] | 104 |
| CC(C)OC(=O)N1CCC(C2Cc3cc(-c4ccc(CC(=O)NCC#N)cc4)ccc3O2)CC1 (stereo not drawn) [Example 134] | 100 |
| CC(C)OC(=O)N1CCC(C2Cc3cc(-c4ccc(CC(=O)N5CC(F)(F)C5)cc4)ccc3O2)CC1 (stereo not drawn) [Example 136] | 11 |
| CC(C)OC(=O)N1CCC(C2Cc3cc(-c4ccc(CC(=O)N(C)C5CCCOC5)cc4)ccc3O2)CC1 (stereo not drawn) [Example 140] | 63 |
| CC(C)OC(=O)N1CCC(C2Cc3cc(-c4ccc(C(=O)NCc5cocn5)cc4)ccc3O2)CC1 (stereo not drawn) [Example 141] | 40 |
| CC(C)OC(=O)N1CCC(C2Cc3cc(-c4ccc(CC(=O)NCc5cocn5)cc4)ccc3O2)CC1 (stereo not drawn) [Example 142] | 208 |
| COC1CN(C(=O)Cc2ccc(-c3ccc4c(c3)CC(C3CCN(C(=O)OC(C)C)CC3)O4)cc2)C1 (stereo not drawn) [Example 146] | 65 |
| CC(C)OC(=O)N1CCC(C2Cc3cc(-c4ccc(C(=O)NCCC(C)(C)O)cc4)ccc3O2)CC1 (stereo not drawn) [Example 147] | 113 |
| CC(C)OC(=O)N1CCC(C2Cc3cc(-c4ccc(CC(=O)NCCC(C)(C)O)cc4)ccc3O2)CC1 (stereo not drawn) [Example 148] | 98 |
| CC(C)OC(=O)N1CCC(C2Cc3cc(-c4ccc(C(=O)NCC(C)(C)CO)cc4)ccc3O2)CC1 (stereo not drawn) [Example 151] | 47 |
| CC(C)OC(=O)N1CCC(C2Cc3cc(-c4ccc(CC(=O)NCC(C)(C)CO)cc4)ccc3O2)CC1 (stereo not drawn) [Example 152] | 153 |
| CC(C)OC(=O)N1CCC(C2Cc3cc(-c4ccc(C(=O)NCC5CCCO5)cc4)ccc3O2)CC1 (stereo not drawn) [Example 153] | 17 |
| CC(C)OC(=O)N1CCC(C2Cc3cc(-c4ccc(CC(=O)NCC5CCCO5)cc4)ccc3O2)CC1 (stereo not drawn) [Example 154] | 98 |
| CC(C)OC(=O)N1CCC(C2Cc3cc(-c4ccc(C(=O)NCc5ccccn5)cc4)ccc3O2)CC1 (stereo not drawn) [Example 157] | 34 |
| CC(=O)Nc1ccc(-c2ccc3c(c2)CC(C2CCN(C(=O)OC(C)C)CC2)O3)cn1 (stereo not drawn) [Example 161, 4-[5-(6-Acetylamino-pyridin-3-yl)-2,3-dihydro-benzofuran-2-yl]-piperidine-1-carboxylic acid isopropyl ester] | 26 |
| CC(=O)Nc1ccc(-c2ccc3c(c2)CC(C2CCN(C(=O)OC(C)C)CC2)O3)cc1 (stereo not drawn) [Example 164] | 89 |
| CC(C)OC(=O)N1CCC(C2Cc3cc(-c4cncs4)ccc3O2)CC1 (stereo not drawn) [Example 166] | 190 |
| CNc1ncc(-c2ccc3c(c2)CC(C2CCN(C(=O)OC(C)C)CC2)O3)cn1 (stereo not drawn) [Example 174] | 610 |
| COc1cnc(-c2ccc3c(c2)CC(C2CCN(C(=O)OC(C)C)CC2)O3)nc1 (stereo not drawn) [Example 175] | 3310 |
| CC(C)OC(=O)N1CCC(C2Cc3cc(-c4cnccn4)ccc3O2)CC1 (stereo not drawn) [Example 176] | 489 |
